Assay results taken from patent US8093030B2, “Thermostable viral polymerases and methods of use” (Lucigen Corporation, priority 2005, dated 2012).

How the values were obtained:
[1] = target: polymerase 3173 (SEQ ID NO:6) double mutant D49A/F418Y, SEQ ID NO:27 (uncultured virus, UniProt R4KMS7, D72A/F441Y); assay: Fluorescent primer extension assay with ddGTP; assay type: biochemical
Protocol: (§1) In separate reactions, ddGTP, ddATP, ddTTP, and ddCTP were added to the above mix in concentrations of 50, 500 and 5000 μM each. Five units of polymerase 3173 mutant D49A were added and the reactions were incubated for 30 minutes at 70° C. Extension of the primer was detected by the ABI 310 Genetic Analyzer in Gene Scan mode.
The polymerase 3173 double mutant D49A/F418Y was also tested in the fluorescent primer extension assay described above.

[2] = target: polymerase 3173 (SEQ ID NO:6) mutant D49A (uncultured virus, UniProt R4KMS7, D72A); assay: Inhibition of 5' Rox-labeled primer extension by chain terminators (ABI 310 Genetic Analyzer); assay type: biochemical; conditions: ddNTPs 50, 500 and 5000 μM each vs 50 μM each dNTP (up to 100-fold molar excess); 70° C., 30 minutes
Protocol: as §1

[3] = test system: lacIq gene; assay: Fidelity assay, lacIq amplification with blue/white colony count; conditions: 25 PCR cycles; target size 349 for lacIq
Protocol: Fidelity was determined by a modification of the standard assay in which the lacIq gene is amplified by the DNA polymerase of interest and inserted into a plasmid containing genes encoding a functional lacZ alpha peptide and a selectable marker. Primers of SEQ ID NOS:28 and 29 were used to amplify a sequence containing both the lacIq and the KanR gene. […] Normally a white phenotype is seen for clone containing this construct when plated on X-Gal. Mutation of the lacIq results in a blue phenotype for the colonies when plated on X-Gal.
For high fidelity PCR amplification, five units of the wild-type (proofreading) DNA polymerase 3173 (SEQ ID NO: 6) was tested using the following mix (50 mM Tris HCl (pH 9.0 at 25° C.), 50 mM KCl, 10 mM (NH4)2SO4, 1.5 mM MgSO4, 1.5 mM MgCl2, 0.1% triton-X100, 250 mM ectoine and 0.2 mM each of dGTP, dATP, dTTP and dCTP. Opposing primers of SEQ ID 28 and 29 (1 μM each) amplified the expected 2 k kb product from template SEQ ID 30 (10 ng). After thermal cycling (94° C. for 1 minute, 25 cycles of (94° C. for 15 seconds, 60° C. for 15 seconds, 72° C. for 2.5 minutes) and 72° C. 7 minutes), reaction products were quantified to determine “fold amplification,” (see below) using agarose gel electrophoresis. Both primers contain Eco109I sites. The PCR product was digested with Eco109I and inserted into the Eco109I site of pUC19. 10 G cells transformed by the construct were plated on LB plates containing ampicillin (100 μg/ml), kanamycin (30 μg/ml) and X-Gal (50 μg/ml). Blue and white colony counts were used for the fidelity determinations.

[4] = test system: ROX-labeled 37 nt primer annealed to 41 nt template; assay: Primer extension assay of heat-treated clone extracts (ABI 310 capillary electrophoresis); assay type: biochemical; conditions: extract heated 70° C. 10 min; reaction 70° C. 10 minutes
Protocol: 34 complete polymerase genes from the library described in Examples 3 and 4, as well as 24 additional viral genes from three other similarly prepared libraries, were constitutively expressed in the E. CLONI 10 G cells (Lucigen, Middleton, Wis.). The proteins were extracted, heated to 70° C. for 10 minutes and tested for DNA polymerase activity using a primer extension assay as follows.
A primer of 37 nucleotides having the sequence shown in SEQ ID NO:23, labeled on its 5′ end with ROX, was annealed to a template of 41 nucleotides having the sequence shown in SEQ ID NO:24. […] The reaction was incubated at 70° C. for 10 minutes. The reactions were analyzed using an ABI 310 Genetic Analyzer. […] Of the 58 clones tested, a total of ten clones expressed detectable DNA polymerase (DNAP) activity. The clone number and corresponding polynucleotide sequence, polypeptide sequence, sequence similarity and E (expect)-values for these polymerases are shown below in Table 1.

polymerase 3173 (SEQ ID NO:6) mutant D49A, sequence (R4KMS7 entry or part of it D72A): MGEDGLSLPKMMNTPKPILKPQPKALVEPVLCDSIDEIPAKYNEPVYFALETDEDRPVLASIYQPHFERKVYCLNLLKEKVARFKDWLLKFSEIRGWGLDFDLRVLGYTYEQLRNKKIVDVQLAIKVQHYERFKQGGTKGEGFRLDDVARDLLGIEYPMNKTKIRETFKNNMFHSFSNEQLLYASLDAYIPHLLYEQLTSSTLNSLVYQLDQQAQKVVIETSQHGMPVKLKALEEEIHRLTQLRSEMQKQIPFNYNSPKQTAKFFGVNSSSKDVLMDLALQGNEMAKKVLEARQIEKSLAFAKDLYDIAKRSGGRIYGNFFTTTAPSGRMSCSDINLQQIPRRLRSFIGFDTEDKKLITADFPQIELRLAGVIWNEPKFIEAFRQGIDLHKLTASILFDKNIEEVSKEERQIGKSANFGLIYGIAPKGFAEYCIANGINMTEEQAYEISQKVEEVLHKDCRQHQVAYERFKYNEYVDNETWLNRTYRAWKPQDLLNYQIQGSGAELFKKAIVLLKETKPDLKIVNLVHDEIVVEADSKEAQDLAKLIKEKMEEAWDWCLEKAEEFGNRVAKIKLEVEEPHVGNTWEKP
polymerase 3173 (SEQ ID NO:6) double mutant D49A/F418Y, SEQ ID NO:27, sequence (R4KMS7 entry or part of it D72A/F441Y): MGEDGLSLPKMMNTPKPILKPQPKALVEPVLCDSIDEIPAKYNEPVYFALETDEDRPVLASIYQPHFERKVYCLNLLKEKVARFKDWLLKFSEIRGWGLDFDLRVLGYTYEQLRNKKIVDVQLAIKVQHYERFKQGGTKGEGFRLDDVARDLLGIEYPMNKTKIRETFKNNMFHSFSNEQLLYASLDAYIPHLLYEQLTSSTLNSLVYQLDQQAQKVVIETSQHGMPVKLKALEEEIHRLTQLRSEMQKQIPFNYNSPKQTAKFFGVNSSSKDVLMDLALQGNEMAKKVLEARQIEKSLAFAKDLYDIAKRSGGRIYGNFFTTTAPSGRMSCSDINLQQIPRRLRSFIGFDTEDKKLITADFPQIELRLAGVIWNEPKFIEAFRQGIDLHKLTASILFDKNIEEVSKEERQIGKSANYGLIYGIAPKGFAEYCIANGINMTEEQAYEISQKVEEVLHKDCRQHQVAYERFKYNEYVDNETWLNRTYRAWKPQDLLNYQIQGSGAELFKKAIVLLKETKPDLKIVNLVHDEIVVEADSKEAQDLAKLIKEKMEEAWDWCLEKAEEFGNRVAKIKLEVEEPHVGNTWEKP

Molecule | inhibition of primer extension [2] | Exo (exonuclease activity, either 3′-5′ or 5′-3′) [4] | also measured
Nc1nc2c(ncn2[C@H]2CC[C@@H](COP(=O)(O)OP(=O)(O)OP(=O)(O)O)O2)c(=O)[nH]1 [ddGTP] | no inhibition of primer extension was detected | – | inhibition of primer extension ([1]; 0.2× ratio of ddGTP:dGTP): nearly complete inhibition of primer extension, with no extension continuing beyond the fourth G residue; inhibition of primer extension ([1]; 2× ratio of ddGTP:dGTP): almost completely inhibited any extension
Taq: standard commercial DNA polymerase (Lucigen) used for comparison [reference compound] | – | – | Fidelity [3]: 9.76E+03
Nc1ncnc2c1ncn2[C@H]1CC[C@@H](COP(=O)(O)OP(=O)(O)OP(=O)(O)O)O1 [ddATP] | no inhibition of primer extension was detected | – | –
Cc1cn([C@H]2CC[C@@H](COP(=O)(O)OP(=O)(O)OP(=O)(O)O)O2)c(=O)[nH]c1=O [ddTTP] | no inhibition of primer extension was detected | – | –
Nc1ccn([C@H]2CC[C@@H](COP(=O)(O)OP(=O)(O)OP(=O)(O)O)O2)c(=O)n1 [ddCTP] | no inhibition of primer extension was detected | – | –
Clone 4110: thermostable viral DNA polymerase clone, polypeptide SEQ ID NO: 8 (protein, Uncultured newly isolated virus) MGLDQILDMSYFVDSGATMLKLILRGSGGKNVVTVPAPFNPYFFIKKRDLDRAQSILPDYARVEDADAITAEGERVVKISVPTPPLVRVVREKLHEEGIESYEADIPYTRRVMIDLDLKVAYPETVAAFDIEVDATKGFPDINNPQSRVLSISVYDGSEEIFLCSDDEIEMFKEFNKLLRKYDVLIGWNSAAFDYPYLVERAKVLGYYVDEEMFQHVDIFGIFQTYFKREMSDFKLKTVALKVLGSKVPLGALLDFERPGDIRKLTEFFEKRRDLLKLYNMDQTKAIWMINSESGVLQTYITQARLANIIPWHRVSPRTDSSQEYISYNNDCRDLVLKKALAHKPRIVFPSKKNGENEDWDEDAKESTYTGAIVFNPIPGLWENVVLLDFASMYPRVIMTFNISYDTWTPNPGENDILAPHGGFITSREGFLPTVLRELEGYRSLAKKMVDAYEPGDPMRVIWNARQFAFKLILVSAYGVAGFRHSRLYRVEIAESITGYTRDAIMKAREVIERHGWRVLYGDTDSLFLYNPKITSVEKASEVASSELLPAINSFIRDYVVERWRVPRSRVVLEFKVDRVYSKLKLLSVKKRYYGLVAWEERMLEQPYIQIKGLEARRGDWPDLVKEIQSEVIKLYLLEGPIAVDRYLKEMKRKLLSGEIPLEKLVIKKHLNKRLDEYKHNAPHYRAARKLLEMRFPVRTGDRIEFIYLDDKVIPMVPGLKLSEVDLKKWWRKYVVPVVERLEIESRGS | – | No | –
Clone 488: thermostable viral DNA polymerase clone, polypeptide SEQ ID NO: 4 (protein, Uncultured newly isolated virus) AVGTWITTLQKLGFTYEELEDKEVLDLLSIARLVLPERFKENGFSLDVVLKEVLGIDYKFDKKTIRKTFTPLLMTQEQLEYIASDVIYLPALKEKLDEKFNKRLWLPYILDMEATKILAEVSNNGMPFLKEKAKEELSRLSKELEGLRKELGFNPNSPKETQKVLNTPDTSEATLMKLIISNSSKKAIAEKVIQARKIQKVIAMINKYLNYDRVKGTFWTTTAPSGRMSCDKENLQQIPRSIRYLFGFDENSDKTLVIADYPQIELRLAGVLWKEPKFIQAFNEGKDLHKQTASIIYGIPYEEVNKEQRQIAKSANFGLIYGMSVEGFANYCIKNGIPMDTQTAQHIVNSFFNFYGKIAEKHKEGNLIIQSQGIAEGYTWLGRRYIAQRLNDYLNYQIQGSGAELLKKAVMEIKSKYPYIKIVNLVHDEIVVEAYKDDAQDIARIIKQEMENAWEWCIQEAQKLGVDLTPVKLECENPTISNVWEK | – | No | –
Clone 967: thermostable viral DNA polymerase clone, polypeptide SEQ ID NO: 14 (protein, Uncultured newly isolated virus) MQKEIPFNYNSPKQTAKLFGIDSSSKDVLMDLALRGNEVAKKVLEARQIEKSLAFAKDLYDIAKKNGGRIHGNFFTTTAPSGRMSCSDINLQQIPRRLRQFIGFETEDKKLITADFPQIELRLAGVMWNEPEFLKAFRDGIDLHKLTASILFDKKINEVSKEERQIGKSANFGLIYGISPKGFAEYCISNGINITEEMAIEIVKKWKKFYRKIAEQHQLAYERFKYAEFVDNETWLNRPYRAYKPQDLLNYQIQGSGAELFKKAIILLKETKPDLKLVNLVHDEIVVETSTEEAEDIALLVKQKMEEAWDYCLEKAKEFGNNVADIKLEVEKPNISSVWEKE | – | No | –
